Source: US20120088803A1, “CONTROL AGENT FOR SOFT ROT AND CONTROL METHOD FOR THE SAME” (Ishihara Sangyo Kaisha, Ltd, priority 2009, published 2012)
Where “and” joins values, the source holds several entries; their conditions need not be identical. Identical values can stand only once.

Key:
[1] = test system: Chinese cabbage soft rot; test: Test for disease control of Chinese cabbage with or without mulch-sheet, field (Example 5); assay type: in vivo, Erwinia carotovora; set-up: key to Disease incidence rate: % of examined plants that are diseased; key to Disease control value: (1 − severity treated / severity untreated) × 100; key to Disease severity: Σ(plants per class × index 0-4)/(plants examined × 4) × 100; settings: 250 g ai/10 a; for Disease incidence rate / Disease severity / Disease control value: 150 L/10 a, Harebutai 65, 64 days; for Disease control value: vs untreated plot
Description: (§1) (Disease incidence rate)=[(number of diseased plants)/(number of plants examined)]*100
(§2) (Disease severity)={S [(number of diseased plants in each class into which the plants are classified according to the degree of disease)*(disease index)]/[(number of plants examined)*4]}*100
(§3) (Disease control value)={1-[(Disease severity in treated plot)/(Disease severity in untreated plot)]}*100
(§4) Incidentally, the evaluation criteria for the disease index are as follows. • (Disease index) • 0: No lesion • 1: Lesions appear only in part of outer leaves (shipment can be made). • 2: Lesions appear in outer leaves and part of head leaves (the damaged part is removed and shipment as a small size plant can be made, rated Grade B). • 3: Lesions appear in most head leaves or more (shipment cannot be made). • 4: Lesions appear in the entire plant and the plant dies.
(§5) Preparation was performed using 500 g/L of 3-chloro-N-(3-chloro-5-trifluoromethyl-2-pyridyl)-alpha,alpha,alpha-trifluoro-2,6-dinit ro-p-toluidine (fluazinam, Frowncide SC (trade name), manufactured by Ishihara Sangyo Kaisha, Ltd.) such that the amount of the active ingredient was 250 g ai/10 a (500 mL product/10 a), and the amount of dilution water was 150 L/10 a.
(§6) A mulch-sheet for agricultural use was spreaded on soil, and planting holes for settlement (diameter: about 5 cm) were made, and then, the spray solution prepared in the above was sprayed onto the planting holes such that the spraying amount was 0.25 g/m^2 (150 L/10 a), followed by air-drying. Then, seedlings of Chinese cabbage (cultivar: Harebutai 65) grown for 4 weeks in a cell tray (128 holes/nursery box) were planted such that 19 seedlings were planted in one test plot having an area of 2.4 m^2 with two replications.
as §6, with “The” for “A mulch-sheet for agricultural use was spreaded on soil, and planting holes for settlement (diameter: about 5 cm) were made, and then, the”, “a) without spreading a mulch-sheet for agricultural use,” for “a),”
(§7) The degree of disease incidence was examined for all the plants in each test plot 64 days after the start of the test, and the disease severity and the disease control value were evaluated. Incidentally, the disease severity and the disease control value were obtained in the same manner as described above.

[2] = test system: Chinese cabbage soft rot; test: Test for disease control of Chinese cabbage, field (Example 3 / Comparative example 2); assay type: in vivo, Erwinia carotovora; set-up: key to Disease incidence rate: % of examined plants diseased; key to Disease control value: (1 - severity treated/severity untreated) x 100; key to Disease severity: severity index 0-100 from disease index 0-4 weighted counts; settings: for Disease incidence rate / Disease severity / Disease control value: 54 days; for Disease control value: vs untreated plot
Description: as §1, §2, §3, §4
as §5, with “ingredient was 62.5 g ai/10 a (125 mL product/10 a), 125 g ai/10 a (250 mL product/10 a), and 250 g” for “ingredient was 250 g”, “a), and each amount of” for “a), and the amount of”
A mulch-sheet for agricultural use was spreaded on soil, and planting holes for settlement (diameter: about 9 cm) were made, and then, the spray solution prepared in the above was sprayed onto the planting holes such that the amount of treated active ingredient was 0.0625 g/m^2 (150 L/10 a) in the case of the spray solution containing the active ingredient at 62.5 g ai/10 a, 0.125 g/m^2 (150 L/10 a) in the case of the spray solution containing the active ingredient at 125 g ai/10 a, and 0.25 g/m^2 (150 L/10 a) in the case of the spray solution containing the active ingredient at 250 g ai/10 a, followed by air-drying. Then, seedlings of Chinese cabbage (cultivar: Musou) grown for 4 weeks in a cell tray (128 holes/nursery box) were planted such that 30 seedlings were planted in one test plot having an area of 6 m^2 with two replications.
Preparation was performed by diluting streptomycin (Mycin 20 wettable powder (trade name), manufactured by Hokko Chemical Industry Co., Ltd.) with water to 1/1000.
In a field covered with a mulch-sheet for agricultural use, seedlings of Chinese cabbage (cultivar: Musou) grown in a cell tray were planted, in the same manner as in Example 3, and foliage application was performed by spraying the spray solution of streptomycin prepared in (1) (spraying amount per application: 300 L/10 a) three times (13 days, 20 days, and 27 days after the planting of the seedlings).
as §7, with “54” for “64”

[3] = with mulch-sheet for agricultural use, Average
[4] = with mulch-sheet for agricultural use, single replications I-II
[5] = without mulch-sheet for agricultural use, Average
[6] = 62.5 g ai/10 a, 150 L/10 a onto planting holes, Musou, Average
[7] = 125 g ai/10 a, 150 L/10 a onto planting holes, Musou, Average
[8] = 125 g ai/10 a, 150 L/10 a onto planting holes, Musou, single replications I-II
[9] = 250 g ai/10 a, 150 L/10 a onto planting holes, Musou, Average
[10] = 250 g ai/10 a, 150 L/10 a onto planting holes, Musou, single replications I-II
[11] = 1/1000 dilution, foliage application three times, Musou, Average

O=[N+]([O-])c1cc(C(F)(F)F)c(Cl)c([N+](=O)[O-])c1Nc1ncc(C(F)(F)F)cc1Cl [Fluazinam, 3-chloro-N-(3-chloro-5-trifluoromethyl-2-pyridyl)-alpha,alpha,alpha-trifluoro-2,6-dinit ro-p-toluidine]
Control effect without mulch-sheet compared with treated plot covered with mulch-sheet (in words) ([1]; Table 5 test, moderate incidence conditions): substantially equal
Disease incidence rate [1, 3]: 31.2
Disease severity [1, 3]: 8.5
Disease incidence rate [1, 4]: 23.5 and 38.9
Disease severity [1, 4]: 5.9 and 11.1
Disease control value ([1]; with mulch-sheet for agricultural use): 73.1
Disease incidence rate [1, 5]: 28.9
Disease severity [1, 5]: 8.6
Disease control value ([1]; without mulch-sheet for agricultural use): 72.8
Disease incidence rate [2, 6]: 100
Disease severity [2, 6]: 32.1
Disease severity ([2]; 62.5 g ai/10 a, 150 L/10 a onto planting holes, Musou, single replications I-II): 26.7 and 37.5
Disease control value ([2]; 62.5 g ai/10 a, 150 L/10 a onto planting holes, Musou): 28.7
Disease incidence rate ([2]; 62.5 g ai/10 a, 150 L/10 a onto planting holes, cultivar Musou, single replications I-II): 100
Disease incidence rate [2, 7]: 100
Disease severity [2, 7]: 30.9
Disease incidence rate [2, 8]: 100
Disease severity [2, 8]: 33.3 and 28.4
Disease control value ([2]; 125 g ai/10 a, 150 L/10 a onto planting holes, Musou): 31.3
Disease incidence rate [2, 9]: 83.3
Disease severity [2, 9]: 25
Disease incidence rate [2, 10]: 73.3 and 93.3
Disease severity [2, 10]: 20 and 30
Disease control value ([2]; 250 g ai/10 a, 150 L/10 a onto planting holes, Musou): 44.4
Control effect on Chinese cabbage soft rot compared with foliage application of streptomycin (in words) ([2]; Table 3 test, moderate incidence conditions, even at 62.5 g ai/10 a or 125 g ai/10 a): a higher control effect

[H]/N=C(/N)N[C@H]1[C@H](O)[C@@H](O)[C@H](O[C@@H]2O[C@@H](C)[C@](O)(C=O)[C@H]2O[C@@H]2O[C@@H](CO)[C@H](O)[C@@H](O)[C@@H]2NC)[C@@H](N/C(N)=N\[H])[C@@H]1O [Streptomycin, streptomycin]
Disease incidence rate ([2]; 1/1000 dilution, foliage application 300 L/10 a three times (13, 20, 27 days), Musou, single replications I-II): 100
Disease incidence rate [2, 11]: 100
Disease severity [2, 11]: 36.7
Disease severity ([2]; 1/1000 dilution, foliage application three times, Musou, single replications I-II): 32.5 and 40.8
Disease control value ([2]; 1/1000 dilution, foliage application three times, Musou): 18.4
